What follows are molecules tested against T1, HDAC6 (Homo sapiens, UniProt Q9UBN7) (assay: HDAC assay (fluorogenic substrate), HDAC6). Conditions: not given.
T1 sequence (Q9UBN7 1-1215): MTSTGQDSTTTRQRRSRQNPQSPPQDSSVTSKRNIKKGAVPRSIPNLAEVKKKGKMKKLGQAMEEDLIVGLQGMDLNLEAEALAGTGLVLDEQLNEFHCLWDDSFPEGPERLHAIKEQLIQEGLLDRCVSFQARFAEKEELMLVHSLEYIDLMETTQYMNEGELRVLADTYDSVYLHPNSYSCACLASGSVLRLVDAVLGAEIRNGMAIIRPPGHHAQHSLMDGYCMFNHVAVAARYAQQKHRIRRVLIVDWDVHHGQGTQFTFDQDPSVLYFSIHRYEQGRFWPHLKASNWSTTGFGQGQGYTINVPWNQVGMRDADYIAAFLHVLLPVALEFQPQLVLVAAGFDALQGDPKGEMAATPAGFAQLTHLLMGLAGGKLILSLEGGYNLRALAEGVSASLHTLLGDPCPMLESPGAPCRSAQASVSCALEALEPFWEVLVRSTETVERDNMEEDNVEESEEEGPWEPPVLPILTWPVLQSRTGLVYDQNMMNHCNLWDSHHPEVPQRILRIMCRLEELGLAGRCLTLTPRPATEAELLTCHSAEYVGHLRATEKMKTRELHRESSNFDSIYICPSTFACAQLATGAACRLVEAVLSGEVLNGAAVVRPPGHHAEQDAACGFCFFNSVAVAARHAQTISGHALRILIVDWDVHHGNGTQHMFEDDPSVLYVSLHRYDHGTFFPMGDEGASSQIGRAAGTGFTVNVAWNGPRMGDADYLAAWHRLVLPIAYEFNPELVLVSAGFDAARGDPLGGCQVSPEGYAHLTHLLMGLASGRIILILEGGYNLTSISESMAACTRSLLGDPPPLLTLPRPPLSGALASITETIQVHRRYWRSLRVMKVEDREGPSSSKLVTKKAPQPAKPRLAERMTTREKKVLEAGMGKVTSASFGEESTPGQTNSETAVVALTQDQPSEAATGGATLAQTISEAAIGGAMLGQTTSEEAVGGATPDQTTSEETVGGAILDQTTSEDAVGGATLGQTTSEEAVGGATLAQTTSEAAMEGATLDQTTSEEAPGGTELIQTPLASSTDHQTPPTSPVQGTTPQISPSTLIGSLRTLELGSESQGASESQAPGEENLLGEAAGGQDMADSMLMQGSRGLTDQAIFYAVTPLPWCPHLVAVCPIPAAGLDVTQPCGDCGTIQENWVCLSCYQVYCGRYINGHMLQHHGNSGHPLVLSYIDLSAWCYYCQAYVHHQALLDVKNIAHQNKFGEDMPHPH
Type: biochemical
Procedure: Base Reaction buffer: 50 mM Tris-HCl, pH8.0, 137 mM NaCl, 2.7 mM KCl, and 1 mM MgCl2. Add fresh: 1 mg/ml BSA, 1% DMSO
Fluorogenic HDAC General Substrate: 50 μM, Arg-His-Lys-Lys(Ac)
• 1. Deliver 2× enzyme in wells of reaction plate except No Enzyme control wells. Add buffer in No En wells. • 2. Deliver compounds in 100% DMSO into the enzyme mixture by Acoustic technology (Echo550; nanoliter range). Spin down and pre-incubation. • 3. Deliver 2× Substrate Mixture (Fluorogenic HDAC Substrate and co-factor if applicable) in all reaction wells to initiate the reaction. Spin and shake. • 4. Incubate for 30 min for Class 2A, 1 hr for HDAC1, 2, 3, and 6, and 2 hr for the rest of HDACs and SIRTs at 30° C. with seal. Development Step: • 5. Add Developer with Trichostatin A (or Nicotinamide for SIRTs) to stop the reaction and to generate fluorescent color. • 6. Kinetic measurement for 1.5 hr with Envision with 15 min interval. (Ex/Em=360/460 nm) • 7. Take endpoint reading for analysis after the development reaches plateau.

Row | SMILES | inhibition at 10 µM
1 | O=S(=O)(NCC1CC1)c1cc(Nc2ncc(-c3nnc(C(F)F)o3)cn2)cc2c1ncn2CCO [Example 26, N-(cyclopropylmethyl)-6-((5-(5-(difluoromethyl)-1,3,4-oxadiazol-2-yl)pyrimidin-2-yl)amino)-1-(2-hydroxyethyl)-1H-benzo[d]imidazole-4-sulfonamide] | > 90%
2 | FC(F)c1nnc(-c2cnc(Nc3cc(-c4ccncc4)c4nc[nH]c4c3)nc2)o1 [Example 35, N-(5-(5-(difluoromethyl)-1,3,4-oxadiazol-2-yl)pyrimidin-2-yl)-4-(pyridin-4-yl)-1H-benzo[d]imidazol-6-amine] | > 90%
3 | FC(F)c1nnc(-c2cnc(Nc3cc(-c4ccn[nH]4)c4nc[nH]c4c3)nc2)o1 [Example 36, N-(5-(5-(difluoromethyl)-1,3,4-oxadiazol-2-yl)pyrimidin-2-yl)-4-(1H-pyrazol-5-yl)-1H-benzo[d]imidazol-6-amine] | > 90%
4 | OCCn1cnc2c(-c3ccn[nH]3)cc(Nc3ncc(-c4nnc(C(F)F)o4)cn3)cc21 [Example 37, 2-(6-((5-(5-(difluoromethyl)-1,3,4-oxadiazol-2-yl)pyrimidin-2-yl)amino)-4-(1H-pyrazol-5-yl)-1H-benzo[d]imidazol-1-yl)ethan-1-ol] | > 90%
5 | Fc1c(Nc2ncc(-c3nnc(C(F)F)o3)cn2)cc(-c2ccccc2)c2nc[nH]c12 [Example 39, N-(5-(5-(difluoromethyl)-1,3,4-oxadiazol-2-yl)pyrimidin-2-yl)-7-fluoro-4-phenyl-1H-benzo[d]imidazol-6-amine] | > 90%
6 | Cn1nccc1-c1cc(Nc2ncc(-c3nnc(C(F)F)o3)cn2)cc2[nH]cnc12 [Example 40, N-(5-(5-(difluoromethyl)-1,3,4-oxadiazol-2-yl)pyrimidin-2-yl)-4-(1-methyl-1H-pyrazol-5-yl)-1H-benzo[d]imidazol-6-amine] | > 90%
7 | OCCn1c(C(F)(F)F)nc2c(-c3ccccc3)cc(Nc3ncc(-c4nnc(C(F)F)o4)cn3)cc21 [Example 41, 2-(6-((5-(5-(difluoromethyl)-1,3,4-oxadiazol-2-yl)pyrimidin-2-yl)amino)-4-phenyl-2-(trifluoromethyl)-1H-benzo[d]imidazol-1-yl)ethan-1-ol] | > 90%
8 | Fc1cc(I)ccc1-c1cc(Nc2ncc(-c3nnc(C(F)F)o3)cn2)cc2[nH]cnc12 [Example 42, N-(5-(5-(difluoromethyl)-1,3,4-oxadiazol-2-yl)pyrimidin-2-yl)-4-(2-fluoro-4-iodophenyl)-1H-benzo[d]imidazol-6-amine] | > 90%
9 | FC(F)c1nnc(-c2cnc(Nc3cc(-c4cn[nH]c4)c4nc[nH]c4c3)nc2)o1 [Example 44, N-(5-(5-(difluoromethyl)-1,3,4-oxadiazol-2-yl)pyrimidin-2-yl)-4-(1H-pyrazol-4-yl)-1H-benzo[d]imidazol-6-amine] | > 90%
10 | Fc1ccc(Cl)cc1-c1cc(Nc2ncc(-c3nnc(C(F)F)o3)cn2)cc2[nH]cnc12 [Example 45, 4-(5-chloro-2-fluorophenyl)-N-(5-(5-(difluoromethyl)-1,3,4-oxadiazol-2-yl)pyrimidin-2-yl)-1H-benzo[d]imidazol-6-amine] | > 90%
11 | OCCn1cnc2c(-c3cn[nH]c3)cc(Nc3ncc(-c4nnc(C(F)F)o4)cn3)cc21 [Example 46, 2-(6-((5-(5-(difluoromethyl)-1,3,4-oxadiazol-2-yl)pyrimidin-2-yl)amino)-4-(1H-pyrazol-4-yl)-1H-benzo[d]imidazol-1-yl)ethan-1-ol] | > 90%
12 | C#CCn1cnc2c(-c3ccccc3)cc(Nc3ncc(-c4nnc(C(F)F)o4)cn3)cc21 [Example 47] | > 90%
13 | FC(F)c1nnc(-c2cnc(Nc3cc(-c4ccccc4)c4ncn(CC(F)(F)F)c4c3)nc2)o1 [Example 48, N-(5-(5-(difluoromethyl)-1,3,4-oxadiazol-2-yl)pyrimidin-2-yl)-4-phenyl-1-(2,2,2-trifluoroethyl)-1H-benzo[d]imidazol-6-amine] | > 90%

Further lines, results first:

Row | inhibition at 10 µM | SMILES
14 | > 90% | CNC(=O)n1cnc2c(-c3ccccc3)cc(Nc3ncc(-c4nnc(C(F)F)o4)cn3)cc21 [Example 28, 6-((5-(5-(difluoromethyl)-1,3,4-oxadiazol-2-yl)pyrimidin-2-yl)amino)-N-methyl-4-phenyl-1H-benzo[d]imidazole-1-carboxamide]
15 | > 90% | CC(CO)n1cnc2c(-c3ccccc3)cc(Nc3ncc(-c4nnc(C(F)F)o4)cn3)cc21 (stereo not drawn) [Example 29, 2-(6-((5-(5-(difluoromethyl)-1,3,4-oxadiazol-2-yl)pyrimidin-2-yl)amino)-4-phenyl-1H-benzo[d]imidazol-1-yl)propan-1-ol]
16 | > 90% | Cc1nc2c(-c3ccccc3)cc(Nc3ncc(-c4nnc(C(F)F)o4)cn3)cc2n1CCO [Example 30, 2-(6-((5-(5-(difluoromethyl)-1,3,4-oxadiazol-2-yl)pyrimidin-2-yl)amino)-2-methyl-4-phenyl-1H-benzo[d]imidazol-1-yl)ethan-1-ol]
17 | > 90% | OCCn1cnc2c(-c3ccc(F)cc3F)cc(Nc3ncc(-c4nnc(C(F)F)o4)cn3)cc21 [Example 32, 2-(6-((5-(5-(difluoromethyl)-1,3,4-oxadiazol-2-yl)pyrimidin-2-yl)amino)-4-(2,4-difluorophenyl)-1H-benzo[d]imidazol-1-yl)ethan-1-ol]
18 | > 90% | OCCn1cnc2c(-c3ccc(F)cc3C(F)(F)F)cc(Nc3ncc(-c4nnc(C(F)F)o4)cn3)cc21 [Example 33, 2-(6-((5-(5-(difluoromethyl)-1,3,4-oxadiazol-2-yl)pyrimidin-2-yl)amino)-4-(4-fluoro-2-(trifluoromethyl)phenyl)-1H-benzo[d]imidazol-1-yl)ethan-1-ol]
19 | > 90% | CC(C)(C)c1cc(Nc2ncc(-c3nnc(C(F)F)o3)cn2)cc2c1ncn2CCO [Example 34, 2-(4-(tert-butyl)-6-((5-(5-(difluoromethyl)-1,3,4-oxadiazol-2-yl)pyrimidin-2-yl)amino)-1H-benzo[d]imidazol-1-yl)ethan-1-ol]
20 | > 90% | Fc1c(Nc2ncc(-c3nnc(C(F)F)o3)cn2)cc2[nH]cnc2c1-c1ccccc1 [Example 38, N-(5-(5-(difluoromethyl)-1,3,4-oxadiazol-2-yl)pyrimidin-2-yl)-5-fluoro-4-phenyl-1H-benzo[d]imidazol-6-amine]

The molecules below were run on Tubulin deacetylation in U266B1 human myeloma cell line (assay: Tubulin deacetylation inhibition in U266B1 cells). Conditions: Cell Type U266B1.
Type: cell-based
Procedure: Tubulin Deacetylation Inhibition
Example 1 was dissolved with DMSO at 10 mM stock. Reference compound TSA was dissolved with DMSO at 10 mM stock. U266B1 human myeloma cell line was purchased from American Type Culture Collection (Manassas, Va.). U266B1 cells were grown in RPMI medium and supplemented with 15% heat-inactivated fetal bovine serum (FBS), 100 μg/ml penicillin, and 100 μg/ml streptomycin. Cultures were maintained at 37° C. in a humidified atmosphere of 5% CO2 and 95% air. 12% Bis-Tris gel and nitrocellulose membrane were purchased from Thermo Fisher. Anti-acetylated-Tubulin antibody (Catalogue #T7451) was purchased from Sigma-Aldrich. Anti-α-Tubulin antibody (Catalogue #sc-12462-R) antibody was purchased from Santa Cruz Biotechnology. Anti-Acetylated Histone H3 (K9) (Catalogue #9649) and anti-Histone H3 (Catalogue #3638) antibodies were purchased from Cell Signaling Technology. Anti-rabbit IgG IRDye 680RD or anti-mouse IgG IRDye 800CW secondary antibodies were purchased from LI-COR.

Row | IC50 | SMILES
21 | 0.75 µM | CC(/C=C/C(=O)NO)=C\[C@@H](C)C(=O)c1ccc(N(C)C)cc1 [Trichostatin, reference compound]

Source: patent US11339150B2, “Benzimidazole compounds as HDAC6 inhibitors” (OnKure, Inc., priority 2019, dated 2022)
